Results: PubChem BioAssay AID651990 (The Scripps Research Institute Molecular Screening Center, 2013)
Calls of active or inactive are those of the source. No rule for the calls is given here.

Tests used:
[1] = target: Acyl-protein thioesterase 2 (Homo sapiens) (UniProt O95372); assay: LYPLA1 and LYPLA2 inhibitor potency, dose response, gel-based ABPP, fluorescence, HEK293T proteome (AID 651990); conditions: HEK293T soluble proteome, gel-based ABPP FP-PEG-Rh fluorescence; LYPLA2
[2] = target: Acyl-protein thioesterase 1 (Homo sapiens) (UniProt O75608); assay: as above; conditions: HEK293T soluble proteome, gel-based ABPP FP-PEG-Rh fluorescence; LYPLA1
Chain of Acyl-protein thioesterase 1 (Homo sapiens) (O75608 whole entry, looked up): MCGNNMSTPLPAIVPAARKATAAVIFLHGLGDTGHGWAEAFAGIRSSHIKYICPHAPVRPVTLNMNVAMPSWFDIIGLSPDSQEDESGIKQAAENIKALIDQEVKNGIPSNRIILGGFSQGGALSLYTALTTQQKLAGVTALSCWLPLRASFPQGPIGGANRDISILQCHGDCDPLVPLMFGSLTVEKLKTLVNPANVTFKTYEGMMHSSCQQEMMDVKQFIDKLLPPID

Chain of Acyl-protein thioesterase 2 (Homo sapiens) (O95372 whole entry, looked up): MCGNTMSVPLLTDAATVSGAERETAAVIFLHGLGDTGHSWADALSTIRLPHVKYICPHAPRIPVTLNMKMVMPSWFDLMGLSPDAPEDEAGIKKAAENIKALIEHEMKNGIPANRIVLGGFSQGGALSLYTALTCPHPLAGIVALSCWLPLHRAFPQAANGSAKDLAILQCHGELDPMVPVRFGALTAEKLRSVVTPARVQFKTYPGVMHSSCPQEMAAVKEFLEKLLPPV

Compound	IC50 [1]	IC50 [2]
O=C(CN1CCN(C(=O)c2ccco2)CC1)Nc1cc(C(F)(F)F)ccc1Cl	> 3000 nM (inactive)	–
COc1ccc(N2CCN(C(=O)c3cc4c(s3)-c3ccccc3S(=O)(=O)C4)CC2)cc1	144 nM	> 3000 nM (inactive)
